Experimental data: patent publication US7699995B2, “Water treatment method” (priority 2006, dated 2010)
Values after ≈ are worked out from the molar mass of the structure shown.

Tests used:
Alcaligenes faecalis = assay: MIC, bacteria, TSB pH 7; type: cell-based; conditions: 48 h
Method: (§1) Minimum inhibitory concentration (MIC) studies were conducted to determine the lowest level of biocide required to inhibit growth of bacteria and fungi. Tests were conducted in 96-well microtiter plates. Biocides were added to growth media in the plates and serially diluted to obtain a range of concentrations. Bacterial tests were conducted in trypticase soy broth (TSB; pH 7) using an overnight inoculum added at 10^6 colony forming units per ml. […] Fungal tests were conducted in malt extract broth (MEB; pH 4.7) using an 5-7 day inoculum added at 10^4 colony forming units per ml.

Citrobacter freundii = assay: MIC, bacteria, TSB pH 7; type: cell-based; conditions: 48 h, TSB pH 7, 25° C., two days
Method: as §1

Enterobacter aerogenes = assay: MIC, bacteria, TSB pH 7; type: cell-based; conditions: Klebsiella aerogenes, 48 h
Method: as §1

Enterobacter cloacae = assay: MIC, bacteria, TSB pH 7; type: cell-based; conditions: 48 h
Method: as §1

Escherichia coli = assay: MIC, bacteria, TSB pH 7; type: cell-based; conditions: 48 h
Method: as §1

Klebsiella pneumoniae = assay: MIC, bacteria, TSB pH 7; type: cell-based; conditions: 48 h
Method: as §1

Proteus mirabilis = assay: MIC, bacteria, TSB pH 7; type: cell-based; conditions: 48 h
Method: as §1

Pseudomonas aeruginosa = assay: MIC, bacteria, TSB pH 7; type: cell-based; conditions: 48 h, TSB pH 7, 25° C., two days
Method: as §1

Pseudomonas fluorescens = assay: MIC, bacteria, TSB pH 7; type: cell-based; conditions: 48 h, TSB pH 7, 25° C., two days
Method: as §1

Pseudomonas oleovorans = assay: MIC, bacteria, TSB pH 7; type: cell-based
Method: as §1

Pseudomonas putida = assay: MIC, bacteria, TSB pH 7; type: cell-based; conditions: 48 h
Method: as §1

Shewanella putrefaciens = assay: MIC, bacteria, TSB pH 7; type: cell-based; conditions: 48 h
Method: as §1

Acremonium strictum = assay: MIC, fungi, MEB pH 4.7; type: cell-based; conditions: Sarocladium strictum, 168 h
Method: as §1

Candida albicans = assay: MIC, fungi, MEB pH 4.7; type: cell-based; conditions: 168 h
Method: as §1

Field Isolate (fungi) = assay: MIC, fungi, MEB pH 4.7; type: cell-based; conditions: 168 h, MEB pH 4.7, 25° C., 7 days
Method: as §1

Fusarium solani = assay: MIC, fungi, MEB pH 4.7; type: cell-based; conditions: 168 h
Method: as §1

Fusarium sp. = assay: MIC, fungi, MEB pH 4.7; type: cell-based; conditions: 168 h, MEB pH 4.7, 25° C., 7 days
Method: as §1

Geotrichum candidum = assay: MIC, fungi, MEB pH 4.7; type: cell-based; conditions: 168 h
Method: as §1

Rhodotorula rubra = assay: MIC, fungi, MEB pH 4.7; type: cell-based; conditions: 168 h
Method: as §1

Trichosporon sp. = assay: MIC, fungi, MEB pH 4.7; type: cell-based; conditions: 168 h
Method: as §1

[1] = Stability in high pH metalworking fluid use dilutions (HPLC); type: physicochemical; conditions: for % MIT Remaining: 25° C.
Method: Stability studies were conducted in three high pH metalworking fluid use dilutions to compare the persistence of MIT biocide versus CMIT biocide, tested alone and in combination with MCC). Aliquots of the use-diluted fluids were dosed with 17.5 ppm active CMIT/MIT and CMIT/MIT/MCC and stored at 25° C. Biocide concentrations were determined at time zero and weekly using high performance liquid chromatography (HPLC) analysis.

Question: With Cn1sccc1=O [MI, 2-methyl-4-isothiazolin-3-one] as the compound, how does the MIC (Alcaligenes faecalis) read?
Answer: 28 µg/mL (≈ 243 µM)

Question: And the MIC (Citrobacter freundii; first listed)?
Answer: 25 µg/mL (≈ 217 µM)

Question: And the MIC (Citrobacter freundii; second listed)?
Answer: 41 µg/mL (≈ 356 µM)

Question: And the MIC (Enterobacter aerogenes)?
Answer: 82 µg/mL (≈ 712 µM)

Question: And the MIC (Enterobacter cloacae)?
Answer: 25 µg/mL (≈ 217 µM)

Question: And the MIC (Escherichia coli)?
Answer: 31 µg/mL (≈ 269 µM)

Question: What about the MIC (Klebsiella pneumoniae) of the same compound?
Answer: 12 µg/mL (≈ 104 µM)

Question: What about the MIC (Proteus mirabilis) of the same compound?
Answer: 21 µg/mL (≈ 182 µM)

Question: And the MIC (Pseudomonas aeruginosa; first listed)?
Answer: 15 µg/mL (≈ 130 µM)

Question: And the MIC (Pseudomonas aeruginosa; second listed)?
Answer: 25 µg/mL (≈ 217 µM)

Question: What about the MIC (Pseudomonas fluorescens; first listed) of the same compound?
Answer: 31 µg/mL (≈ 269 µM)

Question: What about the MIC (Pseudomonas fluorescens; second listed) of the same compound?
Answer: 16 µg/mL (≈ 139 µM)

Question: And the MIC (Pseudomonas oleovorans; Ectopseudomonas oleovorans, 48 h, pH 7)?
Answer: 6 µg/mL (≈ 52.1 µM)

Question: What about the MIC (Pseudomonas oleovorans; Pseudomonas oleovorans, second listed, TSB pH 7, 25° C., two days) of the same compound?
Answer: 6 ppm

Question: What about the MIC (Pseudomonas putida) of the same compound?
Answer: 13 µg/mL (≈ 113 µM)

Question: And the MIC (Shewanella putrefaciens)?
Answer: 13 µg/mL (≈ 113 µM)

Question: What about the MIC (Acremonium strictum) of the same compound?
Answer: 16 µg/mL (≈ 139 µM)

Question: What about the MIC (Candida albicans) of the same compound?
Answer: 100 µg/mL (≈ 868 µM)

Question: What about the MIC (Field Isolate (fungi); first listed) of the same compound?
Answer: 8 µg/mL (≈ 69.5 µM)

Question: What about the MIC (Field Isolate (fungi); second listed) of the same compound?
Answer: 21 µg/mL (≈ 182 µM)

Question: What about the MIC (Field Isolate (fungi); third listed) of the same compound?
Answer: 6 µg/mL (≈ 52.1 µM)

Question: And the MIC (Fusarium solani)?
Answer: 13 µg/mL (≈ 113 µM)

Question: And the MIC (Fusarium sp.)?
Answer: 25 µg/mL (≈ 217 µM)

Question: What about the MIC (Geotrichum candidum) of the same compound?
Answer: 250 µg/mL (≈ 2170 µM)

Question: And the MIC (Rhodotorula rubra)?
Answer: 125 µg/mL (≈ 1090 µM)

Question: And the MIC (Trichosporon sp.)?
Answer: 63 µg/mL (≈ 547 µM)

Question: And the “% MIT Remaining” value ([1]; Soluble Fluid 1 (pH 9.2), 2 wk)?
Answer: 95%

Question: And the “% MIT Remaining” value ([1]; Soluble Fluid 1 (pH 9.2), 4 wk)?
Answer: 100%

Question: And the “% MIT Remaining” value ([1]; Soluble Fluid 3 (pH 9.3), 2 wk)?
Answer: 95%

Question: What about the “% MIT Remaining” value ([1]; Soluble Fluid 3 (pH 9.3), 4 wk) of the same compound?
Answer: 100%

Question: And the “% MIT Remaining” value ([1]; Synthetic Fluid 2 (pH 9.4), 1 wk)?
Answer: 92%

Question: And the “% MIT Remaining” value ([1]; Synthetic Fluid 2 (pH 9.4), 3 wk)?
Answer: 94%

Question: What about the biocide active retained ([1]; after 3-4 weeks in all three high pH use-diluted fluids) of the same compound?
Answer: greater than 90%
